Results from patent publication US10512624B2, “Long-chain amphipathic dicarboxylic acids for treatment of diabetes type-1” (Syndromex Ltd., priority 2016, dated 2019).

Legend:
[1] = test system: STZ diabetic rat model, NOD mouse model; details: cited from earlier work
T1D patients = details: insulin-treated (>1 u/kg body weight/day) T1D patients, meta-analysis (ref 12); cited from earlier work
hepatic gluconeogenesis = experiment: Suppression of hepatic gluconeogenesis in STZ diabetic rats (RT-PCR, Western blot, cAMP kit); format: in vivo, rat
Description: (§1) Administering a combination of Medica16αα and insulin was performed by treating STZ diabetic rats (FBG >300 mg/dl) with oral MEDICA16αα(15 mg/kg b.i.d) for five consecutive days, then MEDICA16αα-responsive rats were further treated with MEDICA16αα(15 mg/kg b.i.d) for 10 additional consecutive days (“STZ/MEDICA Res”), and MEDICA16αα non-responsive rats (FBG >250 mg/dl) were further treated for 10 additional consecutive days with either insulin Neutral Protamine Hagedorn (NPH) (3 u/kg b.i.d subcutaneously) (“STZ/NPH”), or with insulin NPH (3 u/kg b.i.d subcutaneously in combination with oral MEDICA16αα(15 mg/kg b.i.d) (“STZ/MEDICA NPH”).
Sampled frozen tissue was homogenized (Polytron) in lysis buffer (50 mM Tris HCl, pH 8.0, 1% Triton X-100, 1 mM EGTA, 1 mM EDTA, 150 mM NaCl, 5 mM NaPPi, 50 mM NaF, 1 mM PMSF, 1 mM Na Vanadate, 40 nM bpVfan and protease inhibitor cocktail (Sigma)), and centrifuged for 15 min at 12,500 rpm.
Protein lysates were prepared in sodium dodecyl sulfate (SDS) sample buffer (62 mM Tris (pH 6.8), 2.3% SDS, […] mercaptoethanol, 10% glycerol), and were subjected to SDS-PAGE, electro-transferred onto cellulose nitrate membranes (Schleicher & Schuell) and probed with the indicated first antibody, followed by HRP-labeled second antibody. Protein concentration was determined by BCA (Thermo Scientific). Bands were detected by ECL, and the intensity of individual bands was determined by densitometry using ImageJ 1.48 v software.
Sampled frozen tissue was homogenized (Polytron) in lysis buffer (50 mM Hepes (pH 7.4), 150 mM NaCl, 10% Glycerol, 1.5 mM MgCl2, 1 mM EGTA, 1% Triton, 50 mM β-glycerolphosphate, 25 mM NaF, 1 mM Na-vanadate, 40 nM bpVphen, protease inhibitor mix (Sigma) and 17.5 mg/ml octyl beta-D-glucopyranoside (Sigma)). Lysates were kept on ice for 30 min and centrifuged at 12000 rpm for 15 min. Lysates ([…]) were incubated for 4 h with protein A/G beads (Santa Cruz Biotechnology) pre-loaded with the indicated antibody. The immune-precipitate was rinsed 3 times with washing buffer (20 mM Hepes (pH 7.4), 150 mM NaCl, 0.1% Tx-100, 10% glycerol), re-suspended in SDS sample buffer, boiled for 8 min, and analyzed by SDS-PAGE.
Total RNA was prepared using the TRI reagent (Sigma Aldrich). First-strand cDNA used as template was synthesized by reverse transcription using oligo(dT) as primer and the Reverse-iTMAX First Strand Kit (ABgene, Epson). Glucose-6-phosphatase (G6Pase) and phosphoenolpyruvate carboxykinase (PEPCK) transcripts normalized by tubulin were quantified by real-time PCR (Rotor Gene RG-3000A) using SYBER green MasterMix (Absolute Syber Green ROX Mix, ABgene) and the following primers: […]
(§2) Pancreas and plasma insulin and glucagon content were determined by insulin (Millipore, Cat #RI-13K) and glucagon (Millipore, Cat # GL-32K) radioimmunoassay (RIA) kits. cAMP levels were measured by cAMP kit (Arbor Assays, DetectX Cat # K019-H1).

STZ diabetic rats = experiment: Anti-diabetic efficacy in streptozotocin (STZ) diabetic rats (FBG, IPGTT, IPITT, fluid balance, insulin/glucagon content); format: in vivo, rat; details: sub-therapeutic insulin NPH 3 u/kg b.i.d alone, STZ diabetic rats
Description: Male Sprague-Dawley (SD) rats weighing 250-275 gr were fed ad libitum (Harlan Teklad 2018), had free access to water, and were kept on a 12:12 h light:dark cycle. Experimental type 1 diabetes (T1D) was induced in overnight fasted rats by a single intra-peritoneal injection of streptozotocin (STZ, 60 mg/kg body weight, Sigma Aldrich) freshly prepared in 0.1 M of cold citrate buffer (pH 4.5), followed by oral 10% glucose solution for the next 24 hours to overcome STZ-induced acute hypoglycemia. STZ diabetic rats (defined as having a fasting blood glucose (FBG) level higher than 300 mg/dl) were selected for further studies.
SHAM (control) rats were injected with 0.1 M of cold citrate buffer (pH 4.5). STZ diabetic or SHAM rats were dosed twice daily by gavage (orally) with 1% CMC (Sigma Aldrich C5678), or with HOOC—C(CH3)2—(CH2)12—C(CH3)2—COOH (2,2,15,15-tetramethylhexadecane-1,16-dioic acid) also termed herein “MEDICA16αα”, “Medica16αα” or M16αα(15 mg/kg body weight) suspended in 1% CMC, or injected intraperitoneal (i.p.) with Neutral Protamine Hagedorn (NPH) insulin (3 u/kg body weight b.i.d), as indicated.
as §1
Tail vein FBG was verified daily by a glucometer (Glucometer®, Accu-Check® Performa, Roche Diagnostics). Urine secretion, food and water consumption were measured in standard metabolic cages (Tecniplast™ Metabolic Cage Systems for Rodents) for 48 hour periods. Samples were collected and recorded every 12 hour.
Overnight fasted rats were injected i.p (1 gr glucose/kg bw) with 20% dextrose solution (Teva Medical). Tail vein blood was sampled on 0, 30, 60, 90 and 120 minutes following glucose injection.
Fasted rats (5 hours fast) were injected i.p (2 u/kg bw) with HumulinR insulin (Eli Lilly). Tail blood glucose levels were measured by glucometer at 0, 15, 30, 60, and 120 min following insulin injection.
as §2

[2] = test system: adipose adenylate cyclase; details: cited from earlier work

CN(C)C(=N)N=C(N)N [metformin]
normalizing STZ-induced diabetes, or preventing or delaying autoimmune T1D in NOD mouse [1]: ineffective or only marginally effective | reduction in daily insulin usage (T1D patients): 1.4 u/d

insulin NPH: Neutral Protamine Hagedorn (NPH) insulin, intermediate-acting insulin, used at sub-therapeutic dose 3 u/kg b.i.d
hepatic phospho-CREB(Ser179) (hepatic gluconeogenesis): ineffective | hepatic phospho-CRTC2(Ser171) (hepatic gluconeogenesis): not | hepatic glucose-6-phosphatase and PEPCK transcripts (hepatic gluconeogenesis; compared with STZ/CMC and SHAM/CMC): essentially unaffected | controlling glycemia (FBG, IPGTT, IPITT, fluid balance) (STZ diabetic rats): without any effect

CC(C)(CCCCCCCCCCC(C)(C)CC(=O)O)CC(=O)O [MEDICA16ββ, 3,3,14,14-tetramethylhexadecane-1,16-dioic acid]
adipose adenylate cyclase [2]: inhibit
